Target: Integrase (HIV-1)
Test: Inhibitory activity against strand transfer in wild-type HIV-1 integrase was determined using 21-mer oligonucleotide substrate

IC50 [µM] | Compound
65 | Nc1ccn(C2COC(COP(=O)(O)OC3CC(n4cnc5c(N)ncnc54)OC3COP(=O)(O)O)C2O)c(=O)n1 (configuration not stated) [[4-(4-amino-2-oxo-1,2-dihydropyrimidin-1-yl)-3-hydroxyoxolan-2-yl]methyl [5-(6-amino-9H-purin-9-yl)-2-[(phosphonatooxy)methyl]oxolan-3-yl] phosphate]
41 | Nc1ncnc2c1ncn2C1CC(OP(=O)(O)OCC2OCC(n3cnc4c(N)ncnc43)C2O)C(COP(=O)(O)O)O1 (configuration not stated) [Phosphoric acid 4-(6-amino-purin-9-yl)-3-hydroxy-tetrahydro-furan-2-ylmethyl ester 5-(6-amino-purin-9-yl)-2-phosphonooxymethyl-tetrahydro-furan-3-yl ester]

From BindingDB's records for doi:10.1016/j.bmcl.2004.07.050 (University of Georgia, 2004)
